Assay [1] can be described thus: DPPH test for the removal of free radicals (activity as free-radical scavengers). As to conditions: DPPH 100 μmol/l in methanol, absorption at 515 nm. How it is done: The activity of the exemplary compounds as free-radical scavengers was compared with that of conventional free-radical scavengers. For this purpose, the DPPH-(1,1-diphenyl-2-picrylhydrazyl) test for the removal of free radicals was used.
DPPH was dissolved in methanol to a concentration of 100 μmol/l. A series of dilutions of the exemplary compounds, vitamin C, α-tocopherol and 3,5-di-tert-butyl-4-hydroxytoluene were prepared in methanol. Methanol served as the control. 2500 μl of the DPPH solution were mixed with 500 μl of each test solution and the decrease in absorption at 515 nm was read until the decrease was less than 2% per hour. The activity of the test substances as free-radical scavengers was calculated according to the following equation:
Activity as free-radical scavenger (%)=100−(absorption of the test compounds)/(absorption of the control)×100.
The activity as free-radical scavenger (%) in a series of dilutions of test compounds was used to calculate, for each test compound, the effective relative concentration EC50 (based on the starting concentration of DPPH, EC=c(test compound)/c(DPPH)) of a test compound at which 50% of the free radical DPPH had been removed.
(Loss of DPPH colour is used to gauge radical scavenging.)

Assay [2] can be described thus: Accelerated autoxidation of lipids by air, Rancimat apparatus, soybean oil. The note with it: antioxidative index = IP(with test solution)/IP(control sample), soybean oil purified over alumina grade N. How it is done:
(§1) The activity of the exemplary compounds as antioxidants was compared with that of conventional antioxidants. The test system used was the accelerated autoxidation of lipids by air with or without antioxidant using the Rancimat apparatus (Rancimat is a registered trademark of Metrohm AG, Herisau, Switzerland).
(§2) The exemplary compounds, vitamin C, α-tocopherol and 3,5-di-tert-butyl-4-hydroxytoluene were dissolved in methanol or acetone, and 100 μl of each test solution was added to a 3 g prepared oil sample. In a control sample, only solvent was added. A constant stream of dry air (20 l/h) was bubbled through the heated oil sample which contained the test solution, and the volatile oxidation products (predominantly short-chain fatty acids such as formic acid or acetic acid) were collected in a receiver containing water. The conductivity of this aqueous solution was continuously measured and documented. The oxidation of (unsaturated) fats proceeds only very slowly for some time and then suddenly increases. The time to the increase is referred to as the induction period (IP).
(§3) The following equation was used to calculate the antioxidative index (AOI):
(§4) AOI=IP(with test solution)/IP(control sample).

A short description of assay [3]: Accelerated autoxidation of lipids by air, Rancimat apparatus, squalene. The note with it: antioxidative index = IP(with test solution)/IP(control sample), squalene purified over alumina grade N, stabilized with 1 ppm α-tocopherol. As to the method:
as §1, §2, §3, §4
The results for the experiment at 80° C. in squalene that has been purified over alumina grade N and stabilized with 1 ppm of α-tocopherol are given in Table 4: […]

With `Cc1cc(C(C)(C)C)c(O)c(C(C)(C)C)c1` [3,5-Di-tert-butyl-4-hydroxytoluene, reference compound], the “EC50 (effective relative concentration, c(test compound)/c(DPPH), at which 50% of the free radical DPPH had been removed)” value in assay [1] is 0.24 mol/mol. Also, the “AOI in soybean oil at 100° C. with 0.05% test substance” value (“AOI … with 0.05% test substance” below) in assay [2] amounted to 4.8. For the same compound, in assay [3], the “AOI in squalene at 80° C. with 0.005% test substance” value (“AOI … with 0.005% test substance” for short) is reported as 38.
Taken in the same sequence, the figures for `COC(=O)NCc1ccc(O)c(O)c1` [Example 1, N-(3,4-Dihydroxybenzyl)-O-methylurethane] were 0.29 mol/mol, 7.2 and 34.
Regarding `CC(C)[C@@H]1CC[C@@H](C)C[C@H]1OC(=O)NCc1ccc(O)c(O)c1` [Example 2, N-(3,4-Dihydroxybenzyl)-O-[(1R,3R,4S)menthyl]urethane], the “EC50 (effective relative concentration, c(test compound)/c(DPPH), at which 50% of the free radical DPPH had been removed)” value in assay [1] was found to be 0.36 mol/mol. Also, in assay [2], the “AOI … with 0.05% test substance” value was determined as 6.5. In addition, the “AOI … with 0.005% test substance” value in assay [3] is recorded as 48.
`CCCCCCOC(=O)NCc1ccc(O)c(O)c1` [Example 3, N-(3,4-Dihydroxybenzyl)-O-hexylurethane]: the “EC50 (effective relative concentration, c(test compound)/c(DPPH), at which 50% of the free radical DPPH had been removed)” value in assay [1] is reported as 0.19 mol/mol. In assay [2], the “AOI … with 0.05% test substance” value amounted to 14.5. In addition, the “AOI … with 0.005% test substance” value in assay [3] was determined as 49.
Taken in the same sequence, the figures for `CCCCC(CC)COC(=O)NCc1ccc(O)c(O)c1` (centres unmarked) [Example 4, N-(3,4-Dihydroxybenzyl)-O-(2-ethylhexyl)urethane] were 0.13 mol/mol, 10.7 and 45.
Consider `CCCCCCNC(=S)NCc1ccc(O)c(O)c1` [Example 5, N-(3,4-Dihydroxybenzyl)-N′-hexylthiourea], for which the “EC50 (effective relative concentration, c(test compound)/c(DPPH), at which 50% of the free radical DPPH had been removed)” value in assay [1] was 0.06 mol/mol. The “AOI … with 0.005% test substance” value in assay [3] worked out at 62.
As to `O=C1O[C@H]([C@@H](O)CO)C(O)=C1O` [Vitamin C, reference compound], the “EC50 (effective relative concentration, c(test compound)/c(DPPH), at which 50% of the free radical DPPH had been removed)” value in assay [1] came out at 0.27 mol/mol. Moreover, in assay [2], the “AOI … with 0.05% test substance” value was found to be 1.2. Moreover, in assay [3], the “AOI … with 0.005% test substance” value is listed as 0.7.
Consider `Cc1c(C)c2c(c(C)c1O)CC[C@@](C)(CCC[C@H](C)CCC[C@H](C)CCCC(C)C)O2` [α-Tocopherol, reference compound], for which the “EC50 (effective relative concentration, c(test compound)/c(DPPH), at which 50% of the free radical DPPH had been removed)” value in assay [1] stood at 0.25 mol/mol. The “AOI … with 0.05% test substance” value in assay [2] was found to be 5.1. The “AOI … with 0.005% test substance” value in assay [3] is 39.
